Data reported in PubChem BioAssay AID2060508 (Molecular Pharmacology Branch, DTP, NCI, 2025).
pIC50: −log10 of the molar value.

Test system: 454973-116-R2-J3-PDC spheroids, viability, % test/control
Experiment: Anticancer human tumor 454973-116-R2-J3-PDC patient-derived pancreatic carcinoma cell line growth inhibition [GQUAD]
Conditions: spheroids with HUVEC and MSC; for pIC50: curve of first compound; for viability, T/C: stronger effect = lower value; active = viability on the fitted dose curve at most 10% of control; inactive = the rest
Outline: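 Multi-cell-type spheroids of tumor cells with HUVEC and mesenchymal stem cells, treated with drug combinations. Concentrations descend in half-log steps from near clinical Cmax, or from 10 microM where Cmax is unknown; viability read-out.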

[1] = second compound 0.0316 µM, first compound 0.0316 µM
[2] = second compound 0.0316 µM, first compound 0.1 µM
[3] = second compound 0.0316 µM, first compound 0.316 µM
[4] = second compound 0.0316 µM, first compound 1 µM
[5] = second compound 0.0316 µM, first compound 3.16 µM
[6] = second compound 0.0316 µM, first compound 10 µM
[7] = second compound 0.1 µM, first compound 0.0316 µM
[8] = second compound 0.1 µM, first compound 0.1 µM
[9] = second compound 0.1 µM, first compound 0.316 µM
[10] = second compound 0.1 µM, first compound 1 µM
[11] = second compound 0.1 µM, first compound 3.16 µM
[12] = second compound 0.1 µM, first compound 10 µM
[13] = second compound 0.316 µM, first compound 0.0316 µM
[14] = second compound 0.316 µM, first compound 0.1 µM
[15] = second compound 0.316 µM, first compound 0.316 µM
[16] = second compound 0.316 µM, first compound 1 µM
[17] = second compound 0.316 µM, first compound 3.16 µM
[18] = second compound 0.316 µM, first compound 10 µM
[19] = second compound 1 µM, first compound 0.0316 µM
[20] = second compound 1 µM, first compound 0.1 µM
[21] = second compound 1 µM, first compound 0.316 µM
[22] = second compound 1 µM, first compound 1 µM
[23] = second compound 1 µM, first compound 3.16 µM
[24] = second compound 1 µM, first compound 10 µM
[25] = second compound 3.16 µM, first compound 0.0316 µM
[26] = second compound 3.16 µM, first compound 0.1 µM
[27] = second compound 3.16 µM, first compound 0.316 µM
[28] = second compound 3.16 µM, first compound 1 µM
[29] = second compound 3.16 µM, first compound 3.16 µM
[30] = second compound 3.16 µM, first compound 10 µM
[31] = second compound 10 µM, first compound 0.0316 µM
[32] = second compound 10 µM, first compound 0.1 µM
[33] = second compound 10 µM, first compound 0.316 µM
[34] = second compound 10 µM, first compound 1 µM
[35] = second compound 10 µM, first compound 3.16 µM
[36] = second compound 10 µM, first compound 10 µM
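Also: spheroids exposed to compounds for seven days.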
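For viability, T/C in this document: 100% = DMSO vehicle control viability.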

C=CC(=O)N1CCN(c2nc(=O)n(-c3c(C)ccnc3C(C)C)c3nc(-c4c(O)cccc4F)c(F)cc23)C(C)C1 (stereo not given) + CN(C)c1ccc(Nc2c3ccc(NC(=O)CCN4CCCC4)cc3nc3cc(NC(=O)CCN4CCCC4)ccc23)cc1
< 5.00: pIC50 (second compound 0.0316 µM) | pIC50 (second compound 0.1 µM) | pIC50 (second compound 0.316 µM) | pIC50 (second compound 1 µM) | pIC50 (second compound 3.16 µM) | pIC50 (second compound 10 µM)
inactive: viability, T/C [1] 112% | viability, T/C [2] 103% | viability, T/C [3] 110% | viability, T/C [4] 112% | viability, T/C [5] 102% | viability, T/C [6] 115% | viability, T/C [7] 103% | viability, T/C [8] 98.9% | viability, T/C [9] 107% | viability, T/C [10] 107% | viability, T/C [11] 102% | viability, T/C [12] 112% | viability, T/C [13] 107% | viability, T/C [14] 103% | viability, T/C [15] 103% | viability, T/C [16] 110% | viability, T/C [17] 99.5% | viability, T/C [18] 111% | viability, T/C [19] 97.3% | viability, T/C [20] 91.8% | viability, T/C [21] 104% | viability, T/C [22] 86.7% | viability, T/C [23] 102% | viability, T/C [24] 100% | viability, T/C [25] 97.7% | viability, T/C [26] 90.7% | viability, T/C [27] 93.8% | viability, T/C [28] 77.7% | viability, T/C [29] 103% | viability, T/C [30] 105% | viability, T/C [31] 83.4% | viability, T/C [32] 77.9% | viability, T/C [33] 82.4% | viability, T/C [34] 68.5% | viability, T/C [35] 79% | viability, T/C [36] 77.5%

CCc1c2c(nc3ccc(O)cc13)-c1cc3c(c(=O)n1C2)COC(=O)[C@]3(O)CC + CN(C)c1ccc(Nc2c3ccc(NC(=O)CCN4CCCC4)cc3nc3cc(NC(=O)CCN4CCCC4)ccc23)cc1
active: viability, T/C (second compound 0.0316 µM, first compound 0.0999 µM) 6.24% | viability, T/C [3] 5.45% | viability, T/C (second compound 0.1 µM, first compound 0.0999 µM) 6.39% | viability, T/C [9] 4.95% | viability, T/C (second compound 0.316 µM, first compound 0.0999 µM) 7.81% | viability, T/C [15] 5.5% | viability, T/C (second compound 1 µM, first compound 0.0999 µM) 8.79% | viability, T/C [21] 5.09% | viability, T/C (second compound 3.16 µM, first compound 0.0999 µM) 11.1% | viability, T/C [27] 5.7%
8.77: pIC50 (second compound 0.1 µM) | pIC50 (second compound 1 µM)
inactive: viability, T/C (second compound 0.0316 µM, first compound 0.000999 µM) 67.9% | viability, T/C (second compound 0.0316 µM, first compound 0.00316 µM) 23.9% | viability, T/C (second compound 0.0316 µM, first compound 0.00999 µM) 21.6% | viability, T/C [1] 15.2% | viability, T/C (second compound 0.1 µM, first compound 0.000999 µM) 68.1% | viability, T/C (second compound 0.1 µM, first compound 0.00316 µM) 25.9% | viability, T/C (second compound 0.1 µM, first compound 0.00999 µM) 21.8% | viability, T/C [7] 14.1% | viability, T/C (second compound 0.316 µM, first compound 0.000999 µM) 61.4% | viability, T/C (second compound 0.316 µM, first compound 0.00316 µM) 27.2% | viability, T/C (second compound 0.316 µM, first compound 0.00999 µM) 22.3% | viability, T/C [13] 12.3% | viability, T/C (second compound 1 µM, first compound 0.000999 µM) 65.6% | viability, T/C (second compound 1 µM, first compound 0.00316 µM) 27.5% | viability, T/C (second compound 1 µM, first compound 0.00999 µM) 23.8% | viability, T/C [19] 11.9% | viability, T/C (second compound 3.16 µM, first compound 0.000999 µM) 62.5% | viability, T/C (second compound 3.16 µM, first compound 0.00316 µM) 30.7% | viability, T/C (second compound 3.16 µM, first compound 0.00999 µM) 24.4% | viability, T/C [25] 13.8% | viability, T/C (second compound 10 µM, first compound 0.000999 µM) 59.1% | viability, T/C (second compound 10 µM, first compound 0.00316 µM) 31.2% | viability, T/C (second compound 10 µM, first compound 0.00999 µM) 24.9% | viability, T/C [31] 19.7% | viability, T/C (second compound 10 µM, first compound 0.0999 µM) 12.6% | viability, T/C [33] 9.24%
8.79: pIC50 (second compound 3.16 µM)
8.83: pIC50 (second compound 10 µM)
8.82: pIC50 (second compound 0.316 µM)
8.78: pIC50 (second compound 0.0316 µM)

COc1cc(C2c3cc4c(cc3C(OC3OC5COC(C)OC5C(O)C3O)C3COC(=O)C23)OCO4)cc(OC)c1O (stereo not given) + CN(C)c1ccc(Nc2c3ccc(NC(=O)CCN4CCCC4)cc3nc3cc(NC(=O)CCN4CCCC4)ccc23)cc1
5.96: pIC50 (second compound 0.316 µM)
6.10: pIC50 (second compound 1 µM)
6.13: pIC50 (second compound 3.16 µM)
inactive: viability, T/C [1] 102% | viability, T/C [2] 95.6% | viability, T/C [3] 87.9% | viability, T/C [4] 55.1% | viability, T/C [5] 25.9% | viability, T/C [6] 15% | viability, T/C [7] 106% | viability, T/C [8] 98.7% | viability, T/C [9] 89.1% | viability, T/C [10] 58.8% | viability, T/C [11] 21.3% | viability, T/C [12] 15.3% | viability, T/C [13] 97.3% | viability, T/C [14] 98.7% | viability, T/C [15] 78.8% | viability, T/C [16] 51.8% | viability, T/C [17] 27.2% | viability, T/C [18] 14.3% | viability, T/C [19] 105% | viability, T/C [20] 89.1% | viability, T/C [21] 78% | viability, T/C [22] 39.4% | viability, T/C [23] 28.7% | viability, T/C [24] 15.7% | viability, T/C [25] 89.2% | viability, T/C [26] 88.7% | viability, T/C [27] 80.5% | viability, T/C [28] 38.5% | viability, T/C [29] 31.6% | viability, T/C [30] 16.3% | viability, T/C [31] 79.2% | viability, T/C [32] 71.3% | viability, T/C [33] 66.2% | viability, T/C [34] 45.5% | viability, T/C [35] 31.8% | viability, T/C [36] 20.9%
6.09: pIC50 (second compound 10 µM)
5.91: pIC50 (second compound 0.0316 µM)
5.90: pIC50 (second compound 0.1 µM)

COc1cccc2c1C(=O)c1c(O)c3c(c(O)c1C2=O)CC(O)(C(=O)CO)CC3OC1CC(N)C(O)C(C)O1 (stereo not given) + CN(C)c1ccc(Nc2c3ccc(NC(=O)CCN4CCCC4)cc3nc3cc(NC(=O)CCN4CCCC4)ccc23)cc1
active: viability, T/C [6] 1.74% | viability, T/C [12] 2.34% | viability, T/C [18] 2.19% | viability, T/C [30] 2.27% | viability, T/C [36] 3.01%
6.62: pIC50 (second compound 0.1 µM)
6.59: pIC50 (second compound 0.316 µM)
6.39: pIC50 (second compound 3.16 µM) | pIC50 (second compound 10 µM)
inactive: viability, T/C [1] 104% | viability, T/C [2] 72.1% | viability, T/C [3] 33% | viability, T/C [4] 33.2% | viability, T/C [5] 20.6% | viability, T/C [7] 98.9% | viability, T/C [8] 71.8% | viability, T/C [9] 36.3% | viability, T/C [10] 31.1% | viability, T/C [11] 20.8% | viability, T/C [13] 100% | viability, T/C [14] 69.8% | viability, T/C [15] 33.4% | viability, T/C [16] 40.5% | viability, T/C [17] 22.4% | viability, T/C [19] 97.5% | viability, T/C [20] 63% | viability, T/C [21] 36% | viability, T/C [22] 42.2% | viability, T/C [23] 29.4% | viability, T/C [24] 3.18% | viability, T/C [25] 88.3% | viability, T/C [26] 72.6% | viability, T/C [27] 40.2% | viability, T/C [28] 44.2% | viability, T/C [29] 27.9% | viability, T/C [31] 79.1% | viability, T/C [32] 61.1% | viability, T/C [33] 44.1% | viability, T/C [34] 47.2% | viability, T/C [35] 31.1%
6.63: pIC50 (second compound 0.0316 µM)
6.60: pIC50 (second compound 1 µM)

Cc1cccc(N(C)C(=O)C2C(O)CCN2c2nc(C)cc(C(F)(F)F)c2C#N)c1 (stereo not given) + CN(C)c1ccc(Nc2c3ccc(NC(=O)CCN4CCCC4)cc3nc3cc(NC(=O)CCN4CCCC4)ccc23)cc1
< 5.00: pIC50 (second compound 0.0316 µM) | pIC50 (second compound 0.1 µM) | pIC50 (second compound 0.316 µM) | pIC50 (second compound 1 µM) | pIC50 (second compound 3.16 µM) | pIC50 (second compound 10 µM)
inactive: viability, T/C [1] 106% | viability, T/C [2] 102% | viability, T/C [3] 103% | viability, T/C [4] 98.1% | viability, T/C [5] 109% | viability, T/C [6] 100% | viability, T/C [7] 102% | viability, T/C [8] 106% | viability, T/C [9] 98.6% | viability, T/C [10] 98% | viability, T/C [11] 92.6% | viability, T/C [12] 105% | viability, T/C [13] 102% | viability, T/C [14] 92.9% | viability, T/C [15] 97.7% | viability, T/C [16] 103% | viability, T/C [17] 93.9% | viability, T/C [18] 93.8% | viability, T/C [19] 93.4% | viability, T/C [20] 99.8% | viability, T/C [21] 92% | viability, T/C [22] 77.8% | viability, T/C [23] 92% | viability, T/C [24] 100% | viability, T/C [25] 92.5% | viability, T/C [26] 90% | viability, T/C [27] 85% | viability, T/C [28] 70.4% | viability, T/C [29] 86.1% | viability, T/C [30] 84.4% | viability, T/C [31] 74% | viability, T/C [32] 74.7% | viability, T/C [33] 60.5% | viability, T/C [34] 72.4% | viability, T/C [35] 74.5% | viability, T/C [36] 65.1%
